# In ChEMBL document CHEMBL4373739, “6-Cinnamoyl-4-arylaminothienopyrimidines as highly potent cytotoxic agents: Design, synthesis and structure-activity relationship studies” (Eur J Med Chem, 2020):
# Activity calls are given as the source filed them. No cut-off for these calls is given here.
# Columns and labels:
# HeLa [1] = assay: Induction of apoptosis in human HeLa cells assessed as live cells at IC50 concentration after 48 hrs by AnnexinV-APC/propidium iodide staining based FACScalibur flow cytometry analysis (reference value: 92 %); type: functional
# MDA-MB-231 = assay: Antiproliferative activity against human MDA-MB-231 cells incubated for 48 hrs by MTT assay; type: functional, cell-based; settings: MDA-MB-231, 48 h
# HeLa [2] = assay: Induction of apoptosis in human HeLa cells assessed as early apoptotic cells at IC50 concentration after 48 hrs by AnnexinV-APC/propidium iodide staining based FACScalibur flow cytometry analysis (reference value: 3.23 %); type: functional
# [3] = Selectivity index, ratio of IC50 for human MRC5 to IC50 for human A549; type: toxicity; settings: MRC5 cells and A549 cells, read-out: Ratio IC50
# HeLa [4] = assay: Induction of apoptosis in human HeLa cells assessed as necrotic cells at IC50 concentration after 48 hrs by AnnexinV-APC/propidium iodide staining based FACScalibur flow cytometry analysis (reference value: 0.457 %); type: functional
# SK-OV-3 = assay: Antiproliferative activity against human SKOV3 cells incubated for 48 hrs by MTT assay; type: functional, cell-based; settings: SK-OV-3, 48 h
# MCF7 = assay: Antiproliferative activity against human MCF7 cells incubated for 48 hrs by MTT assay; type: functional, cell-based; settings: MCF7, 48 h
# A549 = assay: Antiproliferative activity against human A549 cells incubated for 48 hrs by MTT assay; type: functional, cell-based; settings: A549, 48 h
# SK-BR-3 = assay: Antiproliferative activity against human SKBR3 cells incubated for 48 hrs by MTT assay; type: functional, cell-based; settings: SK-BR-3, 48 h
# SW480 = assay: Antiproliferative activity against human SW480 cells incubated for 48 hrs by MTT assay; type: functional, cell-based; settings: SW480, 48 h
# HCT-116 = assay: Antiproliferative activity against human HCT116 cells incubated for 48 hrs by MTT assay; type: functional, cell-based; settings: HCT-116, 48 h
# U-87 MG = assay: Antiproliferative activity against human U87 cells incubated for 48 hrs by MTT assay; type: functional, cell-based, U-87MG ATCC
# MRC5 = assay: Cytotoxicity against human MRC5 cells incubated for 48 hrs by MTT assay; type: cell-based; settings: MRC5, 48 h
# HeLa [5] = assay: Antiproliferative activity against human HeLa cells incubated for 48 hrs by MTT assay; type: functional, cell-based
# HepG2 = assay: Antiproliferative activity against human HepG2 cells incubated for 48 hrs by MTT assay; type: functional, cell-based; settings: HepG2, 48 h
# HeLa [6] = assay: Induction of cell cycle arrest in human HeLa cells assessed as increase in cell population at sub-G1 phase at IC50 concentration after 48 hrs by RNase/propidium iodide staining based flow cytometry analysis; type: functional
# HeLa [7] = assay: Induction of apoptosis in human HeLa cells assessed as late apoptotic cells at IC50 concentration after 48 hrs by AnnexinV-APC/propidium iodide staining based FACScalibur flow cytometry analysis (reference value: 4.30 %); type: functional
# PC-3 = assay: Antiproliferative activity against human PC3 cells incubated for 48 hrs by MTT assay; type: functional, cell-based; settings: PC-3, 48 h
# [8] = molecular target: Epidermal growth factor receptor (Homo sapiens) (UniProt P00533); assay: Inhibition of EGFR in human HeLa cells assessed as effect on AKT phosphorylation at IC50 concentration measured upto 48 hrs by Western blot analysis; type: cell-based
# Chain of Epidermal growth factor receptor (Homo sapiens) (P00533 whole entry): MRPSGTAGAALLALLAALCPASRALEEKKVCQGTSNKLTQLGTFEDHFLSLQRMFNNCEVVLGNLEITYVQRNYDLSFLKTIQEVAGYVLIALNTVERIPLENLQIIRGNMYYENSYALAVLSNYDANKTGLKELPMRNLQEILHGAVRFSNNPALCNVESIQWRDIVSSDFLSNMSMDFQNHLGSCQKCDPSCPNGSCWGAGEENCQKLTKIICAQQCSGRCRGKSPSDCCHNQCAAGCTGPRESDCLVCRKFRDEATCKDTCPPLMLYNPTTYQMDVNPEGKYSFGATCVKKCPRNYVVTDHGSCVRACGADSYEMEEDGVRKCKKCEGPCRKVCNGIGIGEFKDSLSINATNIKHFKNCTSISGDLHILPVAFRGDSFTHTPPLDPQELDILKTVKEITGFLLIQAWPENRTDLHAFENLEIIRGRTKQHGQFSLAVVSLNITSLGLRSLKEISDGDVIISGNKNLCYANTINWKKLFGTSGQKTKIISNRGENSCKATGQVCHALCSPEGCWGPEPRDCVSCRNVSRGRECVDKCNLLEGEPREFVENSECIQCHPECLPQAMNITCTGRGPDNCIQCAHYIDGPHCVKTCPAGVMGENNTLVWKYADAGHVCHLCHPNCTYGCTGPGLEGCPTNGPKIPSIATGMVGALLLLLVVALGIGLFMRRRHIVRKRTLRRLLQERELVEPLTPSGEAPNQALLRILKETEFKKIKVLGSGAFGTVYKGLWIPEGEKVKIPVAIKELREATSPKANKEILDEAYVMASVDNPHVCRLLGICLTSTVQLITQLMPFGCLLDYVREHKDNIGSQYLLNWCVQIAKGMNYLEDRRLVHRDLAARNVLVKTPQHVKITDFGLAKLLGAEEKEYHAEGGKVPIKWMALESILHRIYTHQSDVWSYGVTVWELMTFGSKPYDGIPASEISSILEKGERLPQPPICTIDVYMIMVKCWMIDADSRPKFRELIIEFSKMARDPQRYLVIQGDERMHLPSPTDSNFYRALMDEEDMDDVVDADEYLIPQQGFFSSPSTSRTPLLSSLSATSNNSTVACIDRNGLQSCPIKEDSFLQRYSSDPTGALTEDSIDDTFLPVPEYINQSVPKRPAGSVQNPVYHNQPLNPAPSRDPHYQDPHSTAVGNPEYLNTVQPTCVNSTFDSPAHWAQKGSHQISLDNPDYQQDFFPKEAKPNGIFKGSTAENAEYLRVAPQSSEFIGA
# [9] = molecular target: Epidermal growth factor receptor (Homo sapiens) (UniProt P00533); assay: Inhibition of EGFR phosphorylation in human HeLa cells at IC50 concentration measured upto 48 hrs by Western blot analysis; type: cell-based
# [10] = molecular target: Epidermal growth factor receptor (Homo sapiens) (UniProt P00533); assay: Inhibition of EGFR in human HeLa cells assessed as reduction in ERK 1/2 phosphorylation at IC50 concentration measured upto 48 hrs by Western blot analysis; type: cell-based
# HeLa [11] = assay: Induction of apoptosis in human HeLa cells assessed as necrotic cells after 48 hrs by AnnexinV-APC/propidium iodide staining based FACScalibur flow cytometry analysis (reference value: 0.457 %); type: functional
# HeLa [12] = assay: Induction of apoptosis in human HeLa cells assessed as early apoptotic cells after 48 hrs by AnnexinV-APC/propidium iodide staining based FACScalibur flow cytometry analysis (reference value: 3.23 %); type: functional
# HeLa [13] = assay: Induction of apoptosis in human HeLa cells assessed as late apoptotic cells after 48 hrs by AnnexinV-APC/propidium iodide staining based FACScalibur flow cytometry analysis (reference value: 4.30 %); type: functional
# HeLa [14] = assay: Induction of apoptosis in human HeLa cells assessed as live cells after 48 hrs by AnnexinV-APC/propidium iodide staining based FACScalibur flow cytometry analysis (reference value: 92 %); type: functional
Compound,IC50 (MDA-MB-231) [µM],IC50 (MCF7) [µM],IC50 (A549) [µM],IC50 (HeLa [5]) [µM],IC50 (HepG2) [µM],IC50 (PC-3) [µM],further results
COc1ccc(/C=C/C(=O)Nc2cc3c(Nc4ccc(Cl)c(Cl)c4)ncnc3s2)cc1,16.6,20.1,3.32,0.033,30.6,0.79,Activity (HeLa [1]): 66.8%; Activity (HeLa [2]): 15.7%; selectivity ratio [3]: 5.6; Activity (HeLa [4]): 2%; IC50 (SK-OV-3): 10.7 µM; IC50 (SK-BR-3): 11.9 µM; IC50 (SW480): 5.75 µM; IC50 (HCT-116): 7.41 µM; IC50 (U-87 MG): 4.4 µM; IC50 (MRC5): 18.7 µM; Activity (HeLa [6]): Active; Activity (HeLa [7]): 15.5%
O=C(/C=C/c1ccc(O)cc1)Nc1cc2c(Nc3ccc(Cl)c(Cl)c3)ncnc2s1,1.98,60.6,34.3,24.8,42.9,0.3,
COc1ccc(/C=C/C(=O)Nc2cc3ncnc(Nc4ccc(F)c(Cl)c4)c3s2)cc1,2.6,29.1,22.7,20.6,13.9,0.1,
COc1ccc(/C=C/C(=O)Nc2cc3c(Nc4cc(Cl)cc(Cl)c4)ncnc3s2)cc1,1.97,75.6,21.9,43.3,41.8,0.45,
O=C(/C=C/c1ccccc1)Nc1cc2c(Nc3cc(Cl)cc(Cl)c3)ncnc2s1,11.5,5.8,0.04,0.004,21.8,0.39,Activity (HeLa [1]): 45.8%; inhibition [8]: inactive; inhibition [9]: Active; Activity (HeLa [2]): 42.8%; selectivity ratio [3]: 720; Activity (HeLa [4]): 0.448%; IC50 (SK-OV-3): 10.9 µM; IC50 (SK-BR-3): 6.46 µM; IC50 (SW480): 4.93 µM; inhibition [10]: Active; IC50 (HCT-116): 3.83 µM; IC50 (U-87 MG): 4.49 µM; IC50 (MRC5): 28.8 µM; Activity (HeLa [6]): Active; Activity (HeLa [7]): 11%
C#Cc1cccc(Nc2ncnc3cc(OCCOC)c(OCCOC)cc23)c1 [ERLOTINIB],8.3,11.7,3.8,7.48,28.8,7,Activity (HeLa [11]): 6.06%; Activity (HeLa [12]): 26.2%; IC50 (SK-OV-3): 61.8 µM; IC50 (SK-BR-3): 49.3 µM; IC50 (SW480): 23 µM; IC50 (HCT-116): 23.3 µM; IC50 (U-87 MG): 31.9 µM; Activity (HeLa [13]): 15%; Activity (HeLa [14]): 52.7%

# The next lines start with results.
IC50 (MDA-MB-231) [µM],IC50 (MCF7) [µM],IC50 (A549) [µM],IC50 (HeLa [5]) [µM],IC50 (HepG2) [µM],IC50 (PC-3) [µM],Compound,further results
1,> 100,12.5,3.21,10.7,0.22,O=C(/C=C/c1ccccc1)Nc1cc2ncnc(Nc3cc(Cl)cc(Cl)c3)c2s1,
2.34,75.6,26.2,20.5,15.4,0.7,C#Cc1cccc(Nc2ncnc3cc(NC(=O)/C=C/c4ccccc4)sc23)c1,
4.4,15.3,7.6,0.43,30.1,0.48,O=C(/C=C/c1ccccc1)Nc1cc2c(Nc3ccc(Cl)c(Cl)c3)ncnc2s1,
7.6,14.3,11.2,2.14,22.8,0.7,O=C(/C=C/c1ccccc1)Nc1cc2c(Nc3ccc(F)c(Cl)c3)ncnc2s1,
3.93,93.9,26.2,34.9,44.6,0.4,O=C(/C=C/c1ccccc1)Nc1cc2c(Nc3cccc(Cl)c3F)ncnc2s1,
2.1,30.9,6.67,2.81,10.6,0.2,O=C(/C=C/c1ccccc1)Nc1cc2ncnc(Nc3ccc(F)c(Cl)c3)c2s1,
1.04,> 100,17.2,7.22,15.9,0.54,N#Cc1cccc(Nc2ncnc3cc(NC(=O)/C=C/c4ccccc4)sc23)c1,
2.41,> 100,19.4,10.7,13.4,0.26,O=C(/C=C/c1ccccc1)Nc1cc2ncnc(Nc3ccc(Cl)c(Cl)c3)c2s1,
5.05,38.4,10.1,4.64,58.1,0.4,C#Cc1cccc(Nc2ncnc3sc(NC(=O)/C=C/c4ccccc4)cc23)c1,
